Assay results published in patent EP3960748A1, “COMPOSITION FOR THE TREATMENT OF THE SIDE EFFECTS OF RADIOTHERAPY AND/OR CHEMOTHERAPY” (Fundación Profesor Novoa Santos, priority 2019, dated 2020).

Legend:
Assay type in all cases: cell-based
MMP-3 = assay: Gene expression analysis (qPCR) of MMP-3; conditions: Fig. 5B; 72 hours, BIRB796 2.5 µM; 55 Grays; normalized against HPRT1, compared to non-radiated healthy fibroblast control
Source text: (§1) Skin tissue biopsies from female patients of A Coruña University Hospital Complex - A Coruña Integrated Management Services (Complejo Hospitalario Universitario de A Coruña - Xerencia Xestión Integrada A Coruña (CHUAC-XXIAC)) were obtained from operations for the surgical removal of a benign pathology (fibroadenoma, samples consisting of untreated healthy skin) and from oncology interventions (samples consisting of skin subjected to radiotherapy and chemotherapy). Signed informed consent was received from each of the patients (2015/029, C.0003333, 2016/077). To isolate primary fibroblast from these samples, hypodermal fat was removed with the aid of a scalpel, and the epidermis was segmented into fragments of about 1x1 cm (explants). Lines were made with a scalpel on a 100 cm^2 adherent Petri dish creating a grid, and each of the explants was placed in the resulting intersections with the epidermis facing up and the dermis in contact with the dish. […] The working concentrations of said compounds were determined by means of literature review and cell viability assays (MTT). […]
(§2) For RNA extraction from the different cell types, TRI Reagent (MRC) was used following the manufacturer's instructions. […] The amount and quality of the obtained RNA was quantified in Nanodrop ND-1000. […]

p21 [1] = assay: Gene expression analysis (qPCR) of p21; conditions: Fig. 8; 72 hours; oleuropein 10 µM, BIRB796 2.5 µM; 55 Grays; normalized against HPRT1
Source text: as §1, §2

IL-1β = assay: Gene expression analysis (qPCR) of IL-1β; conditions: Fig. 5C; 72 hours, BIRB796 2.5 µM with or without oleuropein; 55 Grays; normalized against HPRT1
Source text: as §1, §2

IL-6 = assay: Gene expression analysis (qPCR) of IL-6; conditions: Fig. 5C; 72 hours, BIRB796 2.5 µM with or without oleuropein; 55 Grays; normalized against HPRT1
Source text: as §1, §2

p53 = assay: Western blot of p53 in radiated fibroblasts; conditions: Fig. 7; post-radiation treatment for 72 hours; oleuropein 10 µM, BIRB796 2.5 µM; 55 Grays; relative to tubulin
Source text: as §1

p21 [2] = assay: Western blot of p21 in radiated fibroblasts; conditions: Fig. 7; post-radiation treatment for 72 hours; oleuropein 10 µM, BIRB796 2.5 µM; 55 Grays; relative to tubulin
Source text: as §1

SMILES: Cc1ccc(-n2nc(C(C)(C)C)cc2NC(=O)Nc2ccc(OCCN3CCOCC3)c3ccccc23)cc1 [BIRB796, doramapimod]
- MMP-3 mRNA levels (MMP-3): protects against the synthesis of SASP components such as MMP-3
- p21 mRNA level (p21 [1]): reduces the gene expression of senescence factor p21
- IL-1β mRNA levels (IL-1β): decreases synthesis of the inflammatory component
- IL-6 mRNA levels (IL-6): decreases synthesis of the inflammatory component
- protein levels of p53 (p53): effectively reduced protein levels of both factors
- protein levels of p21 (p21 [2]): effectively reduced protein levels of both factors
